Measured values: patent US5981539A, “Piperidine compounds as calcium channel blockers” (Neurosearch A/S, priority 1995, dated 1999)

target: N-type calcium channels (chick cortical synaptosomes) (Gallus gallus, UniProt A0A8V1AJW5); experiment: 45Ca-uptake/influx into chick cortical synaptosomes (K+ depolarization, 30 mM K+); type: biochemical; details: 30 mM K+ minus 4 mM K+, 10 sec influx, 37° C., pH 7.4, read-out: IC50 (concentration of test substance which inhibits the specific uptake of 45Ca by 50%)
Sequence (A0A8V1AJW5 1-2349): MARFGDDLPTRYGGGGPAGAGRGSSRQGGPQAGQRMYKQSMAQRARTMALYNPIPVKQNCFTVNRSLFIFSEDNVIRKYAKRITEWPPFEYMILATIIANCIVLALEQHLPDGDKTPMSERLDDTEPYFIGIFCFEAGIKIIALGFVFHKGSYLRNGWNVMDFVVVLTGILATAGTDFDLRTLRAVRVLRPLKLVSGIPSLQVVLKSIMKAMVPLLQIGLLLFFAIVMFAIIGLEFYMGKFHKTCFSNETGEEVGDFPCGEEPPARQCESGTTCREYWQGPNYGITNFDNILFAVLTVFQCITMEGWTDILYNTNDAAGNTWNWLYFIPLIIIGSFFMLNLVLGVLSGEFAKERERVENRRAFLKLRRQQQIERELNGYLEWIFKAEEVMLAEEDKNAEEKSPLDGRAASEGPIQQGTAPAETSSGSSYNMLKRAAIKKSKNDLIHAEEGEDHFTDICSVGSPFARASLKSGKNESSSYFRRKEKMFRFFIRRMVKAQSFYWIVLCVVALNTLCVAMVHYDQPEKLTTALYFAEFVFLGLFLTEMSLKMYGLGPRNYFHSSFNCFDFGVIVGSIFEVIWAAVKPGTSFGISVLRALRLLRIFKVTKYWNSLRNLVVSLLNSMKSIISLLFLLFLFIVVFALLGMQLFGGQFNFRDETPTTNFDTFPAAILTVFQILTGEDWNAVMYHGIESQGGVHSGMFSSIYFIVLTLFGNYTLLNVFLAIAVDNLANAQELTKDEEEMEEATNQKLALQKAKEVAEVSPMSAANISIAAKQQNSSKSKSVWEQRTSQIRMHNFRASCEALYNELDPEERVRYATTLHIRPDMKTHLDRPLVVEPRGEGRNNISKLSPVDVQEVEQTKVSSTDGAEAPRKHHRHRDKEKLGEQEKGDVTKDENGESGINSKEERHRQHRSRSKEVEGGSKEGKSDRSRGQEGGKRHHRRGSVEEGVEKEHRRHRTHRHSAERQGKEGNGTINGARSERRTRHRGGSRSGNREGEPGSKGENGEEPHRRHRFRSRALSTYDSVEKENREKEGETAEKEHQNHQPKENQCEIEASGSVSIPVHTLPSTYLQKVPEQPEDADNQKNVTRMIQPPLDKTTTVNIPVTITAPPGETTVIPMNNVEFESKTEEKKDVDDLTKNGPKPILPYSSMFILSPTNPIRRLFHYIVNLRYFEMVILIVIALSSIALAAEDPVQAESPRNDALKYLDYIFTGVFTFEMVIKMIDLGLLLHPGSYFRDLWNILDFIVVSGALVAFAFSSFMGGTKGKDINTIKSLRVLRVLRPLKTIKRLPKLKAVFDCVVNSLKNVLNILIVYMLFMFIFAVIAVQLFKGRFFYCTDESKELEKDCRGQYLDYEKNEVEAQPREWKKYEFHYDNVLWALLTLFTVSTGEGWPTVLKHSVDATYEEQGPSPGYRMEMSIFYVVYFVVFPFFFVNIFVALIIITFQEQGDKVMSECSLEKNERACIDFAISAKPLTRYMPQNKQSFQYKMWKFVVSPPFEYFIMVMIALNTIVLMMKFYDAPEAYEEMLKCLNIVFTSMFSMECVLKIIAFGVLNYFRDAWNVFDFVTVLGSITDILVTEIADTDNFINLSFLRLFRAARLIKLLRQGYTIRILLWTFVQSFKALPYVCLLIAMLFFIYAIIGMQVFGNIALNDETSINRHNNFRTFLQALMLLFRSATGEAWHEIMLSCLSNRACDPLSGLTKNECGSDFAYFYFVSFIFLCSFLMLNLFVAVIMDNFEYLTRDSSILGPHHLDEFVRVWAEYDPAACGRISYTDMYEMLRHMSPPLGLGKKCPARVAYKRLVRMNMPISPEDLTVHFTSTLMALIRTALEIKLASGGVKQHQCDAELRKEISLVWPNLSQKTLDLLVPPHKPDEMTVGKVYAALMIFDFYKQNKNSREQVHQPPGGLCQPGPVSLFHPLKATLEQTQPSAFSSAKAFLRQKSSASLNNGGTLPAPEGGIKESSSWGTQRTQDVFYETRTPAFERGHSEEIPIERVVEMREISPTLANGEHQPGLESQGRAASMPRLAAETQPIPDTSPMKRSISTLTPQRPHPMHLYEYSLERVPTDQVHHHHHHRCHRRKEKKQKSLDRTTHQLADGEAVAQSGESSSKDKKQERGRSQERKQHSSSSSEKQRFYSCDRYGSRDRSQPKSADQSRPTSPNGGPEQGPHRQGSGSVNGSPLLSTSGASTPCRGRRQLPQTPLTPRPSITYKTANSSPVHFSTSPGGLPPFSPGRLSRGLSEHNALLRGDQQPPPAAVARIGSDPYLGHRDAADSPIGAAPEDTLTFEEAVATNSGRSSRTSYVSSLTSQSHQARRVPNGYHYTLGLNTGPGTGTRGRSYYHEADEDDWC

Row | Compound | IC50 [nM]
1 | CCCCCN1CC[C@@H](CCOc2cccc(OC(C)C)c2)[C@H](OCCOC)C1 (racemic) [(±)-trans-4-[2-(3-isopropoxyphenoxy)ethyl]-3-(2-methoxy-1-ethoxy)-N-pentylpiperidine] | 1100
2 | CCCCCN1CC[C@@H](Oc2ccccc2OCc2ccccc2)[C@H](OCCOC)C1 (racemic) [(±)-trans-4-[(2-benzyloxyphenoxy)]-3-(2-methoxy-1-ethoxy)-N-pentylpiperidine] | 900
3 | CCCCCN1CC[C@@H](Oc2ccc(Oc3ccccc3)cc2)[C@H](OCCOC)C1 (racemic) [(±)-trans-4-[4-phenoxyphenoxy]-3-(2-methoxy-1-ethoxy)-N-pentylpiperidine] | 620
4 | CCCCCN1CC[C@@H](CCOc2ccc(Cl)c(Cl)c2)[C@H](OC)C1 (racemic) [(±)-trans-4-[2-(3,4-Dichlorophenoxy)-ethyl]-3-methoxy-N-pentylpiperidine] | 700
5 | CCCCCN1CC[C@@H](CCOc2ccc(Cl)c(Cl)c2)[C@@H](OCCOC)C1 (relative stereo) [(±)-cis-4-[2-(3,4-Dichlorophenoxy)-ethyl]-3-(2-methoxy)-ethoxy-N-pentylpiperidine] | 300
6 | CCCCCN1CC[C@H](CCOc2cccc(C)c2C)[C@H](OC)C1 (racemic) [(±)-cis-4-[2-(2,3-Dimethylphenoxy)-ethyl]-3-methoxy-N-pentylpiperidine] | 900
7 | CCCCCN1CC[C@@H](SCc2ccc(Cl)cc2)[C@H](OCCOC)C1 (racemic) [(±)-trans-4-[(4-chlorobenzyl)thio]-3-(2-methoxy-1-ethoxy)-N-pentylpiperidine] | 1000
8 | CCCCCN1CC[C@H](CCN(c2ccccc2)c2ccccc2)[C@H](OC)C1 (racemic) [(±)-cis-4-[2-(N,N-diphenylamino)ethyl]-3-methoxy-N-pentylpiperidine] | 1100
9 | CCCCCN1CC[C@@H](CCN(c2ccccc2)c2ccccc2)[C@H](OCCOC)C1 (racemic) [(±)-trans-4-[2-(N,N-diphenylamino)ethyl]-3-(2-methoxy-1-ethoxy)-N-pentylpiperidine] | 500
10 | CCCCCN1CC[C@H](CCOc2ccccc2-c2ccccc2)[C@H](OC)C1 (racemic) [(±)-cis-4-[2-(2-phenylphenoxy)ethyl]-3-methoxy-N-pentylpiperidine] | 1000
11 | CCCCCN1CC[C@H](CCOc2ccc(Cl)c(Cl)c2)[C@@H](OCCOC)C1 (relative stereo) [(±)-trans-4-[2-(3,4-Dichlorophenoxy)-ethyl]-3-(2-methoxy)-ethoxy-N-pentylpiperidine] | 400
12 | CCCCCN1CC[C@@H](CCOc2ccccc2Cc2ccccc2)[C@H](OC)C1 (racemic) [(±)-trans-4-[2-(2-benzylphenoxy)ethyl]-3-methoxy-N-pentylpiperidine] | 600
13 | CCCCCN1CC[C@H](CCOc2ccccc2Cc2ccccc2)[C@H](OC)C1 (racemic) [(±)-cis-4-[2-(2-benzylphenoxy)ethyl]-3-methoxy-N-pentylpiperidine] | 900
14 | CCCCCN1CC[C@@H](CCN(c2ccccc2)c2ccccc2)[C@H](OC)C1 (racemic) [(±)-trans-4-[2-(N,N-diphenylamino)ethyl]-3-methoxy-N-pentylpiperidine] | 1300
15 | CCCCCN1CC[C@@H](CCOc2ccc(Cl)c(Cl)c2)[C@H](OC(C)=O)C1 (racemic) [(±)-trans-4-[2-(3,4-Dichlorophenoxy)-ethyl]-3-acetoxy-N-pentylpiperidine] | 500

test system: not given; experiment: not given; details: drugs that act at both sodium and calcium channels; result in words; cited from earlier work

Row | Compound | anti-ischaemic activity in animal models
16 | Cc1ccc(-c2nc(C)c(CN3CCN(C(c4ccccc4)c4ccccc4)CC3)[nH]2)cc1 [Lifarizine] | powerful anti-ischaemic activity
17 | COc1ccc(CN2CCN(C(c3ccc(F)cc3)c3ccc(F)cc3)CC2)c(OC)c1OC [Lomerizine] | powerful anti-ischaemic activity
18 | Lanodipine | powerful anti-ischaemic activity
